According to the NIST ThermoML archive (doi:10.1021/je700260f):
Several values for one entry are separate records, joined by “and”; a condition that tells them apart may be missing. Equal values may be shown once.

Settings: 283.15 K, Liquid, Vibrating tube method

FC(C(F)(F)F)C(F)(F)F [1,1,1,2,3,3,3-heptafluoropropane]
Settings	mass density
25072 kPa	1552.4 kg/m3
25508 kPa	1553.7 kg/m3
25593 kPa	1553.9 kg/m3
25630 kPa	1554.1 kg/m3
25722 kPa	1554.3 kg/m3
25865 kPa	1554.8 kg/m3
25945 kPa	1555.1 kg/m3
25993 kPa	1555.1 kg/m3
26030 kPa	1555.3 kg/m3
26068 kPa	1555.4 kg/m3
26113 kPa	1555.4 kg/m3
26152 kPa	1555.7 kg/m3
26191 kPa	1555.8 kg/m3
26249 kPa	1555.9 kg/m3
26283 kPa	1556 kg/m3
26327 kPa	1556.3 kg/m3
26367 kPa	1556.3 kg/m3
26406 kPa	1556.2 kg/m3
26446 kPa	1556.3 kg/m3
26479 kPa	1556.8 kg/m3
26519 kPa	1556.7 kg/m3
26559 kPa	1556.8 kg/m3
26599 kPa	1557 kg/m3
26650 kPa	1557.1 kg/m3
26683 kPa	1557.3 kg/m3
26723 kPa	1557.3 kg/m3
26757 kPa	1557.3 kg/m3
26796 kPa	1557.5 kg/m3
26886 kPa	1557.8 kg/m3
26921 kPa	1557.9 kg/m3
26968 kPa	1558.1 kg/m3
27001 kPa	1558.1 kg/m3
27029 kPa	1558.2 kg/m3
27058 kPa	1558.3 kg/m3
27082 kPa	1558.3 kg/m3
27131 kPa	1558.5 kg/m3
27170 kPa	1558.7 kg/m3
27199 kPa	1558.8 kg/m3
27228 kPa	1558.8 kg/m3
27271 kPa	1558.9 kg/m3
27533 kPa	1559.8 kg/m3
27563 kPa	1559.9 kg/m3
27596 kPa	1559.8 kg/m3
27629 kPa	1560 kg/m3
27673 kPa	1560 kg/m3
27710 kPa	1560.2 kg/m3
27743 kPa	1560.2 kg/m3
27816 kPa	1560.5 kg/m3
27850 kPa	1560.7 kg/m3
27880 kPa	1560.8 kg/m3
27914 kPa	1560.8 kg/m3
27940 kPa	1560.9 kg/m3
27979 kPa	1561 kg/m3
28024 kPa	1561.2 kg/m3
28058 kPa	1561.1 kg/m3
28091 kPa	1561.4 kg/m3
28124 kPa	1561.5 kg/m3
28168 kPa	1561.6 kg/m3
28466 kPa	1562.5 kg/m3
28514 kPa	1562.7 kg/m3
28558 kPa	1562.7 kg/m3
28591 kPa	1562.8 kg/m3
28620 kPa	1562.8 kg/m3
28657 kPa	1562.9 kg/m3
28690 kPa	1563.1 kg/m3
28727 kPa	1563.2 kg/m3
28761 kPa	1563.3 kg/m3
28795 kPa	1563.4 kg/m3
28837 kPa	1563.6 kg/m3
28875 kPa	1563.5 kg/m3
29088 kPa	1564.2 kg/m3
29357 kPa	1565 kg/m3
29424 kPa	1565.2 kg/m3
29452 kPa	1565.2 kg/m3
29578 kPa	1565.7 kg/m3
29617 kPa	1565.6 kg/m3
29646 kPa	1565.8 kg/m3
29684 kPa	1565.9 kg/m3
29712 kPa	1565.9 kg/m3
29745 kPa	1566.1 kg/m3
29784 kPa	1566.2 kg/m3
29814 kPa	1566.3 kg/m3
29853 kPa	1566.4 kg/m3
29877 kPa	1566.5 kg/m3
29911 kPa	1566.5 kg/m3
29944 kPa	1566.6 kg/m3
29974 kPa	1566.7 kg/m3
30021 kPa	1566.8 kg/m3
30050 kPa	1567 kg/m3
30079 kPa	1567 kg/m3
30151 kPa	1567.2 kg/m3
30190 kPa	1567.4 kg/m3
30219 kPa	1567.5 kg/m3
30259 kPa	1567.4 kg/m3
30288 kPa	1567.5 kg/m3
30323 kPa	1567.7 kg/m3
30361 kPa	1567.8 kg/m3
30390 kPa	1567.7 kg/m3
30425 kPa	1567.9 kg/m3
30460 kPa	1567.9 kg/m3
30499 kPa	1568.2 kg/m3
30529 kPa	1568.3 kg/m3
30560 kPa	1568.3 kg/m3
30595 kPa	1568.5 kg/m3
30635 kPa	1568.6 kg/m3
30666 kPa	1568.6 kg/m3
30696 kPa	1568.7 kg/m3
30743 kPa	1568.9 kg/m3
30783 kPa	1569 kg/m3
30830 kPa	1569.1 kg/m3
30861 kPa	1569.2 kg/m3
30897 kPa	1569.2 kg/m3
30937 kPa	1569.4 kg/m3
30968 kPa	1569.5 kg/m3
30999 kPa	1569.5 kg/m3
31030 kPa	1569.6 kg/m3
31065 kPa	1569.7 kg/m3
31105 kPa	1569.9 kg/m3
31140 kPa	1569.9 kg/m3
31187 kPa	1570 kg/m3
31230 kPa	1570.2 kg/m3
31267 kPa	1570.2 kg/m3
31308 kPa	1570.4 kg/m3
31350 kPa	1570.6 kg/m3
31392 kPa	1570.6 kg/m3
31429 kPa	1570.7 kg/m3
31511 kPa	1570.9 kg/m3
31547 kPa	1571.1 kg/m3
31588 kPa	1571.2 kg/m3
31620 kPa	1571.3 kg/m3
31657 kPa	1571.3 kg/m3
31697 kPa	1571.5 kg/m3
31750 kPa	1571.7 kg/m3
31782 kPa	1571.7 kg/m3
31819 kPa	1571.7 kg/m3
31855 kPa	1571.9 kg/m3
31897 kPa	1572 kg/m3
32027 kPa	1572.4 kg/m3
32095 kPa	1572.5 kg/m3
32132 kPa	1572.7 kg/m3
32164 kPa	1572.9 kg/m3
32391 kPa	1573.4 kg/m3
32884 kPa	1574.5 kg/m3
32921 kPa	1574.8 kg/m3
32959 kPa	1574.9 kg/m3
33280 kPa	1575.7 kg/m3
33348 kPa	1575.9 kg/m3
33384 kPa	1576 kg/m3
33426 kPa	1576 kg/m3
33457 kPa	1576.2 kg/m3
33499 kPa	1576.3 kg/m3
33535 kPa	1576.4 kg/m3
33572 kPa	1576.5 kg/m3
33609 kPa	1576.6 kg/m3
33661 kPa	1576.7 kg/m3
33688 kPa	1576.8 kg/m3
33731 kPa	1576.9 kg/m3
33762 kPa	1576.9 kg/m3
33793 kPa	1577.1 kg/m3
33830 kPa	1577.3 kg/m3
33873 kPa	1577.3 kg/m3
33910 kPa	1577.4 kg/m3
33948 kPa	1577.5 kg/m3
33984 kPa	1577.6 kg/m3
34026 kPa	1577.7 kg/m3
34068 kPa	1577.8 kg/m3
34110 kPa	1577.9 kg/m3
34148 kPa	1577.9 kg/m3
34186 kPa	1578.2 kg/m3
34224 kPa	1578.1 kg/m3
34267 kPa	1578.2 kg/m3
34310 kPa	1578.5 kg/m3
34350 kPa	1578.6 kg/m3
34387 kPa	1578.6 kg/m3
34414 kPa	1578.7 kg/m3
34442 kPa	1578.8 kg/m3
34456 kPa	1578.8 kg/m3
34470 kPa	1578.8 kg/m3
34478 kPa	1578.9 kg/m3
34486 kPa	1578.9 kg/m3
34492 kPa	1579.1 kg/m3
34498 kPa	1579 kg/m3
34504 kPa	1578.9 kg/m3
34505 kPa	1578.9 kg/m3
34506 kPa	1579 kg/m3
34508 kPa	1579 kg/m3
34509 kPa	1579 kg/m3
34511 kPa	1579 kg/m3 and 1579.2 kg/m3
34512 kPa	1579 kg/m3 and 1579.1 kg/m3
34513 kPa	1579.1 kg/m3
34514 kPa	1579.2 kg/m3
34515 kPa	1579 kg/m3 and 1578.9 kg/m3
34516 kPa	1579.1 kg/m3
34517 kPa	1579 kg/m3
34518 kPa	1579 kg/m3
34519 kPa	1578.9 kg/m3 and 1579 kg/m3 and 1579.1 kg/m3
34520 kPa	1578.9 kg/m3 and 1579.1 kg/m3
34521 kPa	1579 kg/m3 and 1578.9 kg/m3
34522 kPa	1579 kg/m3
34523 kPa	1579.1 kg/m3 and 1579 kg/m3
34524 kPa	1579.1 kg/m3 and 1579 kg/m3
34525 kPa	1579 kg/m3 and 1578.9 kg/m3
34526 kPa	1579.1 kg/m3
34527 kPa	1579 kg/m3
34528 kPa	1579.1 kg/m3
